# Results from patent US12059502B2, “Composition and method for pretreating cancer” (Valcuria AB, priority 2016, dated 2024).
# Like-named read-outs stand apart in the source and are kept apart here.
# How the values were obtained:
# [1] = Reported physicochemical properties of valproic acid; settings: based on reported absorption and solubility values
# [2] = according to Sigma-Aldrich; cited from earlier work
# [3] = cited from earlier work
# [4] = 70 kg person, Gugler and Unruh 1980
# [5] = systemic disposition PK of the reported 250 mg single dose study
smiles,measurement,setting,value
"CCCC(CCC)C(=O)O [VPA, Valproic acid]",biopharmaceutical classification system (BCS) class,[1],class I
same,solubility in water,[2],50 mg/mL
same,CL,[3]; [4],0.61 L/h
same,F,[3]; [4],100%
same,Vd,[3]; [4],10.6 L
same,"rate of absorption of released drug, first order (kabs)",[3]; based on data of Dutta and Reed 2007,61 h⁻¹
same,time up to which intestinal absorption was measured by deconvolution,"[3]; oral, Dutta and Zhang, 2004",up to 22 hr
same,bioavailability (F),"[3]; oral, immediate release, modified release and extended release formulations",~100%
same,CL,[3]; [5],0.52 L/h
same,V,[3]; [5],7.1 L
